The values below are quoted from earlier work in patent US4083974A, “Topical steroidal anti-inflammatory preparations containing polyoxypropylene 15 stearyl ether” (The Upjohn Company, priority 1977, dated 1978).

For series [1] the following is noted: known property from the art.
For series [2] the following is noted: known property of the prior-art solvent.
In another series the test system is bacterial. The settings on record: prior art; composition contains approximately 15% ethyl alcohol.

For the compound `CC(O)CO` (stereo not drawn) [Propylene glycol, propylene glycol], in series [1], the lubricant properties result is listed as “non-lubricant”. Further, the “irritation to the skin” value in series [2] is on record as “irritating to the skin”.

Turning to `CCO` [ethyl alcohol], in the series on bacterial, the anti-bacterial activity result is on record as “known anti-bacterial agent”.
